Measured values reported in patent US20060115895A1, “Fish disease models and uses thereof” (priority 2002, published 2006).
Where two headings read alike, the source gives them in different places.

Key:
[1] = test system: interleukin 11 transgene (tetracycline inducible system); details: mouse, in vivo; cited from earlier work
[2] = test system: epilepsy induced in the fish; assay: anti-seizure effect in fish with induced epilepsy; format: in vivo; details: concentration in fish water
From the text: Continuing with the example of epilepsy by way of illustration, in embodiments of this aspect of the present invention a known drug may be administered to the fish, for example sodium valproate. Epilepsy is then induced in the fish. Additional test substances, such as candidate chemicals, or genetic mutation may then be applied to the fish and assessed for their anti-epileptogenic effect. […] Any combination of these and/or other drugs or test substances may be arrayed in every possible combination and tested for synergistic efficacy. Appropriate doses vary from 1 nM to 100 mM, e.g. 0.1 μM to 10 mM, with 100 uM being a reasonable starting concentration to assess.

[3] = test system: fish reared in nicotine; details: for fish attracted to nicotine impregnated methyl cellulose: previously bathed at 5 ug/ml, 5 fish per group; for response/preference to nicotine: challenged 8 d.p.f. with 2.5 ug/ml nicotine in 3% methyl cellulose
Procedure: (§1) Fish were reared in nicotine from 2 dpf (immediately after hatching) to 7 d.p.f. at concentrations (in the fish water) of 0.5, 2.5, 5, 25, 50 ug/ml (5 fish per test group). The nicotine medium was then removed and replaced with E3M (embryo medium) at 7 d.p.f. They were then challenged at 8 d.p.f. with 2.5 ug/ml nicotine in 3% methyl cellulose.

[4] = test system: fish reared in nicotine
Procedure: as §1
Details of the toxicity dose/response experiment are given below: […]

[5] = test system: zebrafish of tup background; assay: DMSO tolerance of zebrafish; format: in vivo
Procedure: Zebrafish of tup background were tested in batches of 10. DMSO was added to fish water on day 3 and fish examined daily up to day 9. […] Motoric behaviour was also normal.

[6] = 1% DMSO (10 ul/ml), added day 3, examined daily up to day 9

## C[C@H]1c2cccc(O)c2C(=O)C2=C(O)[C@]3(O)C(=O)C(C(N)=O)=C(O)[C@@H](N(C)C)[C@@H]3[C@@H](O)[C@@H]21 [doxycycline]
[1]
  toxicity to embryos treated in utero, pups or adults: no apparent toxicity

## CN1C(=O)CN=C(c2ccccc2)c2cc(Cl)ccc21 [diazepam]
[2]
  concentration showing therapeutic effects in monotherapy: 35 µM

## CN1CCCC1c1cccnc1 (stereo not shown) [nicotine]
[3]; 25 ug/ml in fish water from 2 dpf
  toxicity: Toxicity was seen
[3]; 50 ug/ml in fish water from 2 dpf
  toxicity: Toxicity was seen
[3]; by 4 mins
  fish attracted to nicotine impregnated methyl cellulose: 2 fish
[3]; by 5 mins
  fish attracted to nicotine impregnated methyl cellulose: 3 fish
[3]; by 15 mins
  fish attracted to nicotine impregnated methyl cellulose: 4 fish
[3]; previously bathed in 0.5 ug/ml
  response/preference to nicotine: no response/preference
[3]; previously bathed in 2.5 ug/ml
  response/preference to nicotine: no response/preference
[4]; 0.5 ug/ml, 3 d.p.f.
  escape response when prodded: escape response as above
  survival: all alive
[4]; 0.5 ug/ml, 4 d.p.f.
  escape response when prodded: escape response as above
  survival: all alive
[4]; 2.5 ug/ml, 3 d.p.f.
  escape response when prodded: escape response as above
  survival: all alive
[4]; 2.5 ug/ml, 4 d.p.f.
  escape response when prodded: escape response as above
  survival: all alive
[4]; 5.0 ug/ml, 3 d.p.f.
  escape response when prodded: escape response as above
  survival: all alive
[4]; 5.0 ug/ml, 4 d.p.f.
  escape response when prodded: escape response as above
  survival: all alive
[4]; 25 ug/ml, 3 d.p.f.
  escape response when prodded: twitch but no escape response when prodded
  survival: all alive
[4]; 25 ug/ml, 4 d.p.f.
  escape response when prodded: twitch but no escape response when prodded
[4]; 25 ug/ml, 4 d.p.f., 5 fish per group
  survival: 4 dead, 1 alive
[4]; 50 ug/ml, 3 d.p.f.
  escape response when prodded: twitch but no escape response when prodded
  survival: all alive
[4]; 50 ug/ml, 4 d.p.f.
  survival: all, dead

## C[S+](C)[O-] [DMSO, dimethyl sulphoxide]
[5]; [6]
  abnormality on detailed examination under dissecting microscope: no abnormality was detected
  motoric behaviour: normal
[5]; final concentration in fish water
  DMSO concentration zebrafish can tolerate: 1%
